Data on 1 compound can be found in patent US20230144619A1, “SALT OF ARYLAMINOPURINE DERIVATIVE, PREPARATION METHOD THEREFOR AND USE THEREOF” (CSPC Zhongqi Pharmaceutical Technology (Shijiazhuang) Co., …, priority 2020, published 2023).

The target in one data set is Lck(h) (Homo sapiens, UniProt P06239). As to the kind of experiment: Kinase inhibitory activity test (per WO2011/147066). Type of data set: biochemical. The method, then: (§1) The salt sample obtained from Example 1 was tested according to the kinase inhibitory activity test described in the biological assessment of the patent application WO2011/147066.
For the next data set, the target named is Ret(h) (Homo sapiens, UniProt P07949). The description is as above. Type of data set: biochemical. The protocol:
as §1

A further data set concerns the target c-SRC(h) (Homo sapiens, UniProt P12931). The data set is described as above. Type of data set: biochemical. The method, then: as §1
In another data set the target is Abl(h) (Homo sapiens, UniProt P00519). The description is as above. Type of data set: biochemical. The protocol:
as §1

The target in another data set is c-KIT (Homo sapiens, UniProt P10721). Described as above. Type of data set: biochemical. As to conditions: result in words. The method, then:
as §1

For another data set, the target named is Hck(h) (Homo sapiens, UniProt P08631). Described as above. Type of data set: biochemical. The protocol:
as §1

The target of a further data set is BTK (Homo sapiens, UniProt Q06187). The description is as above. Type of data set: biochemical. To be noted: result in words. The protocol: as §1
The target of the next data set is Lyn(h) (Homo sapiens, UniProt P07948). The data set is described as above. Type of data set: biochemical. The protocol: as §1
Data set [1] deals with K562 (BCR-Abl gene rearrangement) subcutaneous tumor model. Description: In-vivo anti-tumor test, K562 subcutaneous tumor model. As to conditions: 70 mg/kg, once daily oral administration for 18 days. The arrangement: species or system nude mice. The method, then:
(§2) The salt sample obtained from Example 1 was tested (specifically for FLT3-ITD acute myeloid leukemia, non-small cell lung cancer with EGFR activating mutations, or Ph-positive chronic myeloid leukemia) according to the in-vivo anti-tumor test described in the biological assessment of the patent application WO2011/147066.

Another data set can be described thus: DSC and TGA tests. Type of data set: physicochemical. To be noted: onset temperature. The protocol: 6. Differential Scanning Calorimetry-Thermogravimetric Analysis (DSC-TGA)
Detection instrument: NETZSCH STA 449F3
Temperature range: 20° C.-350° C.;
Heating rate: 10.0 (K/min);
7. Differential Scanning Calorimetry (DSC)
Detection instrument: NETZSCH DSC 214 Polyma
Temperature range: 20° C.-250° C.;
Heating rate: 5.0 (K/min);
8. Thermogravimetric Analysis (TGA)
Detection instrument: METTLER and SDT Q600
The salts obtained in Examples 1 and 3-17 and the compound represented by Formula 1 were subjected to the DSC and TGA tests in media, and the test results were shown in the following table: […]

A further data set can be described thus: Hygroscopicity test. As to conditions: 25±1° C., relative humidity 80%±2% (DVS, 80% RH). Type of data set: physicochemical. The method, then: Detection instrument: XPE105DR
(1) A dry stoppered glass weighing bottle was taken, placed in a suitable constant-temperature desiccator at 25° C. 1° C. (with a saturated solution of ammonium chloride or ammonium sulfate in the lower part) or an artificial climate box (with the set temperature of 25° C.±1° C. and the relative humidity of 80%±2%) on the day before the test, and precisely weighed and recorded as the weight (m1).
(2) An appropriate amount of the test sample was taken and spread in the above-mentioned weighing bottle. The thickness of the test sample was generally about 1 mm, and the bottle was precisely weighed and recorded as the weight (m2).
(3) The stopper was removed to open the weighing bottle, and the opened weighing bottle and the stopper were placed under the above-mentioned constant temperature and humidity conditions for 24 hours.
(4) The opened weighing bottle was stoppered, precisely weighed, and recorded as the weight (m3).
Percentage increase in mass=(m3−m2)/(m2−m1)×100%
(5) The description of hygroscopicity characteristics and the definition for the weight gain due to hygroscopicity:
Deliquescence: Sufficient water was absorbed to form a liquid.
Very hygroscopic: the weight gain due to hygroscopicity was not less than 15%.
Hygroscopic: the weight gain due to hygroscopicity was less than 15% but not less than 2%.
Slightly hygroscopic: the weight gain due to hygroscopicity was less than 2% but not less than 0.2%.
Not or nearly not hygroscopic: the weight gain due to hygroscopicity was less than 0.2%.
Appropriate amounts of the salt samples obtained from Examples 1 and 3-17 were subjected to the hygroscopicity test at a temperature of 25±1° C. under a relative humidity of 80%±2%, and the results were as follows: […]

In the next data set the target is EGFR(h) (Homo sapiens, UniProt P00533). As to the kind of experiment: Kinase inhibitory activity test (per WO2011/147066). Type of data set: biochemical.
The nature of data set [2]: Solubility test (UV spectrophotometer, saturated solutions shaken 24 hours). Type of data set: physicochemical. To be noted: 25° C. The method, then:
Detection instrument: Ultraviolet spectrophotometer/Evolution 300
The following solutions with pH=1.2, pH=4.5, and pH=6.8 and water were used as the solvent, and the solvent preparation process was as follows:
(1) pH=1.2 hydrochloric acid solution: To 7.65 mL of hydrochloric acid was added 1000 mL of water, and the mixture was shaken uniformly to obtain the target solution.
(2) pH=4.5 phosphate buffer solution: 6.8 g of potassium dihydrogen phosphate was taken and diluted with water to 1000 mL, and the mixture was shaken uniformly to obtain the target solution.
(2) pH=6.8 phosphate buffer solution: 6.8 g of potassium dihydrogen phosphate and 0.896 g of sodium hydroxide were taken and diluted with water to 1000 mL, and the mixture was shaken uniformly to obtain the target solution.
(4) Water: purified water
Test tubes with stopper were taken, and 10 mL of dissolution media at various pH values were precisely added to the test tubes respectively, and excessive stock drugs were added until supersaturated solutions were formed. The adding amounts were recorded. The solutions were shaken uniformly, sealed with stoppers, and shaken for 24 hours in a shaker. 2 mL of solutions were taken out at different time points respectively, and centrifuged. The resulting supernatants were taken, filtered, and the subsequent filtrates were taken for later use.
The above-mentioned saturated solutions in different solvents were taken, and solvents were added to dilute the solutions to certain volumes. The absorbances were measured at a wavelength of 287 nm.
Preparation of a solution of the reference substance: an appropriate amount of the compound represented by Formula 1 was taken as the reference substance, and precisely weighed. A solvent was added to dissolve and dilute the reference compound to produce a solution containing about 10 μg of the compound represented by Formula 1 per 1 mL. The absorbance was measured at a wavelength of 287 nm to calculate the solubility.
The salts obtained in Examples 1 and 3-17 and the compound represented by Formula 1 were subjected to the solubility test in media and the test results were shown in the following table: […]

Data set [3] concerns MV4-11 (FLT3-ITD mutation) subcutaneous tumor model. Description: In-vivo anti-tumor test, MV4-11 subcutaneous tumor model. Set-up: species or system nude mice. As to conditions: MV4-11 model, once daily oral administration for 21 days. The method, then:
as §2

Structures can show the parent of a compound that is named as a salt.

Chain of c-SRC(h) (P12931 whole entry): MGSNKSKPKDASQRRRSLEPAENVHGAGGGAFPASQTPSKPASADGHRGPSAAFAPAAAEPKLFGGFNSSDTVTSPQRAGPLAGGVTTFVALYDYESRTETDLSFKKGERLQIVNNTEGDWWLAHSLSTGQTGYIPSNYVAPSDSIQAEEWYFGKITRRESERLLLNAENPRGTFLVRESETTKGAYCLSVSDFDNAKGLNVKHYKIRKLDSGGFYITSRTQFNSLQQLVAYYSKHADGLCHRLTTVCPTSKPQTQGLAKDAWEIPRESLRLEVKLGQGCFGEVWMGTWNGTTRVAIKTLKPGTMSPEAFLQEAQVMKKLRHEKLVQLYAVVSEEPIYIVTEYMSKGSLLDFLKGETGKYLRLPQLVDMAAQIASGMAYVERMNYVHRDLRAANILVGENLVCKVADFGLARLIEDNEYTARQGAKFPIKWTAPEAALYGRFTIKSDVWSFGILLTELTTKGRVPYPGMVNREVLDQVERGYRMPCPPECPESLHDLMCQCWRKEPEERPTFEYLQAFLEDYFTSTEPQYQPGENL
Chain of EGFR(h) (P00533 25-1210): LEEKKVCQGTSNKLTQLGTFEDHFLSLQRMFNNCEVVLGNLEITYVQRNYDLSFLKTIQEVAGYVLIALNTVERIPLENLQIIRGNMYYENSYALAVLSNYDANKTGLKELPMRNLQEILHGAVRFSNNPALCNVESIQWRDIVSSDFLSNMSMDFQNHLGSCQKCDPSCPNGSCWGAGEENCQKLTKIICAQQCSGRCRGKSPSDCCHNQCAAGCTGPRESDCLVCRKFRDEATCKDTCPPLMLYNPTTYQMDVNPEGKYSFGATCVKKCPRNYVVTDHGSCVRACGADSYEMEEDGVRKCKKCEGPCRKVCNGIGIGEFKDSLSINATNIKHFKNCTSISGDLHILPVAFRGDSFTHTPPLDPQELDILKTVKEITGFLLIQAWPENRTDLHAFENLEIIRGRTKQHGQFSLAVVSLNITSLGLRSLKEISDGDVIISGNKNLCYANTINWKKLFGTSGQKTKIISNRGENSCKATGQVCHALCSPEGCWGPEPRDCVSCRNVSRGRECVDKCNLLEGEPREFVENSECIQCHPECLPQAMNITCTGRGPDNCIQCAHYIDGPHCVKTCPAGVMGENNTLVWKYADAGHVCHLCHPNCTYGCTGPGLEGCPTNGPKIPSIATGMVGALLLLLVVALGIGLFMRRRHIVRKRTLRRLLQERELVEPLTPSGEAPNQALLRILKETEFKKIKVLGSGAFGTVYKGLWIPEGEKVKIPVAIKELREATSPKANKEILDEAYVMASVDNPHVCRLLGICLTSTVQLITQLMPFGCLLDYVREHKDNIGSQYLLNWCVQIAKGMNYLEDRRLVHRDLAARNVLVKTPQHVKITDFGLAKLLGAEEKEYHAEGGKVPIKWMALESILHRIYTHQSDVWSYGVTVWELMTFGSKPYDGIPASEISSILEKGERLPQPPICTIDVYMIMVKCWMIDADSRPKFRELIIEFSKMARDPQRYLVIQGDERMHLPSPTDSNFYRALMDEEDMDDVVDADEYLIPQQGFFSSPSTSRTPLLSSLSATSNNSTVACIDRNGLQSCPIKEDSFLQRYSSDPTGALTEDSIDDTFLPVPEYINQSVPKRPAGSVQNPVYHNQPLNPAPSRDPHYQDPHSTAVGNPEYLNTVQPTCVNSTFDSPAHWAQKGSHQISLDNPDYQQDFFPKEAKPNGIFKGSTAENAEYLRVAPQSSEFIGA
Chain of Abl(h) (P00519 whole entry): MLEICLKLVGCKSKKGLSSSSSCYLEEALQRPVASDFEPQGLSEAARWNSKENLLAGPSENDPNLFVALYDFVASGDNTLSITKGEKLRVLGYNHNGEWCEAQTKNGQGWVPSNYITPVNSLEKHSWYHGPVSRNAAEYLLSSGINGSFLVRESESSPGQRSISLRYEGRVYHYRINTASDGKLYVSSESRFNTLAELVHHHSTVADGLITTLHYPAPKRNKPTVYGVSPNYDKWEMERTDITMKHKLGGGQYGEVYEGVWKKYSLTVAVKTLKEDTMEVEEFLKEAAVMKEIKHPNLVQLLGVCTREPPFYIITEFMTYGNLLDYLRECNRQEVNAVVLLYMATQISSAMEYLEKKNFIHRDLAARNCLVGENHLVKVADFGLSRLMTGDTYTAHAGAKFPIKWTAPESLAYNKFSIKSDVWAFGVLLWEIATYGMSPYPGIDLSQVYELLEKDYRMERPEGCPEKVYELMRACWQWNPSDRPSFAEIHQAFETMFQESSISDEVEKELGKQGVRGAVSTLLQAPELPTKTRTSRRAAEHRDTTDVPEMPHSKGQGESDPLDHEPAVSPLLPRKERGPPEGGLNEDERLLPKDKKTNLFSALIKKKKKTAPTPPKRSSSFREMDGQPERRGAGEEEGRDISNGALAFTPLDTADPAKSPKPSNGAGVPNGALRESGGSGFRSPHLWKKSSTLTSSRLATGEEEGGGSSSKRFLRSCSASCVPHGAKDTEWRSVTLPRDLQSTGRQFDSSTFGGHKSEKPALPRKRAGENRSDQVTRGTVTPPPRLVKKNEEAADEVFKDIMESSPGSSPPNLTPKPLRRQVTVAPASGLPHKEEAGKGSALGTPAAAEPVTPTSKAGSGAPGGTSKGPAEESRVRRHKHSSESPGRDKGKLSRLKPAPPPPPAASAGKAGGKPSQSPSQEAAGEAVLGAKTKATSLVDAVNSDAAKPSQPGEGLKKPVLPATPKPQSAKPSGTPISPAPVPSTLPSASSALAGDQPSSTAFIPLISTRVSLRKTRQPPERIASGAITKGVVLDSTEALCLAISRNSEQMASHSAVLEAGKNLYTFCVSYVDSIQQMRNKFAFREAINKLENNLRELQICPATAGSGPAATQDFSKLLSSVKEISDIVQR
Chain of Lck(h) (P06239 whole entry): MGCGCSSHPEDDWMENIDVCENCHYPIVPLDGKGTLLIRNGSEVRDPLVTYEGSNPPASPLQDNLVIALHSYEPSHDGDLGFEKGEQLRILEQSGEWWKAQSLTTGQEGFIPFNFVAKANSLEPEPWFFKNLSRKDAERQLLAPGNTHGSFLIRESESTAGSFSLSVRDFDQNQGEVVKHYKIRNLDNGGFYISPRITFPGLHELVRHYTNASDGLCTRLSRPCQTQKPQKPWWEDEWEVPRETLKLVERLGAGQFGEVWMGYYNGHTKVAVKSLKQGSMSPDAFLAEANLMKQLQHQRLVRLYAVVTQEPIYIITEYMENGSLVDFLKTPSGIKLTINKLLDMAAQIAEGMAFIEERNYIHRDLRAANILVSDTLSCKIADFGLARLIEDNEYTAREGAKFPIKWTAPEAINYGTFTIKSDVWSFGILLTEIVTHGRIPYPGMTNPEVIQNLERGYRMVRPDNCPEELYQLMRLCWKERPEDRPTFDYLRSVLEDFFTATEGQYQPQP
Chain of Hck(h) (P08631 whole entry): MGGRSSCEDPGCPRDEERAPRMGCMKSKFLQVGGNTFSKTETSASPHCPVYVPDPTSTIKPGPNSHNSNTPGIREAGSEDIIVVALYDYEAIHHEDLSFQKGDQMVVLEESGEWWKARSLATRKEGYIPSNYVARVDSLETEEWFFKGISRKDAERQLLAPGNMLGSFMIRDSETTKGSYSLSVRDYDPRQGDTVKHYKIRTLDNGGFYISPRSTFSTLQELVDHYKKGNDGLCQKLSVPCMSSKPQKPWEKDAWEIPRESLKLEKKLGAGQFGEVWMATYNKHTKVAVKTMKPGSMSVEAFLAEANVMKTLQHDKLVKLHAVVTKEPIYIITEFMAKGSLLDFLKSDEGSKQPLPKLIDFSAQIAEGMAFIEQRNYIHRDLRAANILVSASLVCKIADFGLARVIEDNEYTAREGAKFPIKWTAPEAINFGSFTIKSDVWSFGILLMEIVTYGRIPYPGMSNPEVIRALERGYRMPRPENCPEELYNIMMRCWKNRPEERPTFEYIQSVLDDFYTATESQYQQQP
Chain of c-KIT (P10721 26-976): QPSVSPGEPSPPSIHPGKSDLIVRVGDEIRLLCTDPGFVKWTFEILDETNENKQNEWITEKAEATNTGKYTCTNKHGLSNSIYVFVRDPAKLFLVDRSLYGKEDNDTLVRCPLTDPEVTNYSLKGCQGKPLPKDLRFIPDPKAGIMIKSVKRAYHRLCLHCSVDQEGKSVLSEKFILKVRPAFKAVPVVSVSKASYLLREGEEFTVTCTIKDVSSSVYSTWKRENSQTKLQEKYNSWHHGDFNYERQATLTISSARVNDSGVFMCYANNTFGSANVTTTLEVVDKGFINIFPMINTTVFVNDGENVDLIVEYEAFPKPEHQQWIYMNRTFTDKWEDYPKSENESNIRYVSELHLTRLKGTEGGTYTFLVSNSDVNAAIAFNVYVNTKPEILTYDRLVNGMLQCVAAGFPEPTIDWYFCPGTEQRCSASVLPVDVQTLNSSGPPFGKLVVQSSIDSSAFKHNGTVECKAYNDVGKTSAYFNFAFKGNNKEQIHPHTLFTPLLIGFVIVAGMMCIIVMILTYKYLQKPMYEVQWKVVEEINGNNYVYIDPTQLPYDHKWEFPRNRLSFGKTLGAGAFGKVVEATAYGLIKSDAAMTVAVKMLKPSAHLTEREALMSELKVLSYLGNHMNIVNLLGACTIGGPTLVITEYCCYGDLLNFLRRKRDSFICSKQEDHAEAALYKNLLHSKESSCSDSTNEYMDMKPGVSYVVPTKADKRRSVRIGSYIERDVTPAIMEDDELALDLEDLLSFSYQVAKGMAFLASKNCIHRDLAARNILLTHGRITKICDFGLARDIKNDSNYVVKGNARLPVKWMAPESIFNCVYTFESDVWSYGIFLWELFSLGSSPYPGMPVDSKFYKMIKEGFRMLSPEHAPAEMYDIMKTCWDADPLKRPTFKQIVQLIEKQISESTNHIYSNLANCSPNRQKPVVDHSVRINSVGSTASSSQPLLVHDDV

`CC(C)n1c(Nc2cccnc2)nc2cnc(Nc3ccc(N4CCN(C)CC4)cc3)nc21` [Example 1, arylaminopurine derivative.trihydrochloride.pentahydrate]: the IC50 (commonly the concentration that gives 50% inhibition) amounted to 37 nM at Lck(h); 10 nM against Ret(h); 176 nM against c-SRC(h); 25 nM at Abl(h); 93 nM on Hck(h); 7 nM against Lyn(h). The compound also gave an IC50 against EGFR(h) of 42 nM. The “inhibition of kinase activity” value against c-KIT and on BTK was “could inhibit the activities” throughout. Moreover, the tumor growth result in data set [1] was “effectively inhibit the tumor growth”; in data set [3] (5 mg/kg), “completely inhibit the tumor growth”; in data set [3] (10 mg/kg), “complete regression of the tumor”; in [3] (20 mg/kg), “complete regression of the tumor”. In data set [1], this compound gave a tumor inhibition rate of 71.3%. Also, in the data set “DSC and TGA tests”, the “TGA: starting to lose the acid” value is ~140 °C (see FIG. 19). Also, in “DSC and TGA tests”, the “TGA: starting to lose the water of crystallization” value was “crystallization at about 40° C.;”. For the same compound, the Hygroscopicity result in the data set “Hygroscopicity test” is “Slightly hygroscopic (the weight gain due to hygroscopicity was less than 2% but not less than 0.2%.)”. For the same compound, in the data set “Hygroscopicity test”, the “Weight gain due to hygroscopicity” value is 0.7%. Also, the “Solubility, Water medium pH = 1.2” value in [2] (pH=1.2 hydrochloric acid solution) was determined as 33.89 mg/mL. Further, in data set [2] (pH=4.5 phosphate buffer solution), the “Solubility, Water medium pH = 4.5” value came to 47.27 mg/mL. For the same compound, in data set [2] (pH=6.8 phosphate buffer solution), the “Solubility, Water medium pH = 6.8” value came out at 50.62 mg/mL. In [2] (water (purified water)), the “Solubility, Water medium” value is recorded as 40.41 mg/mL.
